{
  "source": "patent US6355640B1",
  "about": "“Pyrazolopyridine adenosine antagonists” (Fujisawa Pharmaceutical Co., Ltd., priority 1993, dated 2002)",
  "test_system": "cisplatin induced renal failure",
  "assay": "Test 2. Effect on Cisplatin-induced Renal Failure",
  "type": "in vivo",
  "conditions": "Male JCL:SD rats, cisplatin 4.5 mg/kg i.p. 60 minutes after first dose; test compound 0.1 mg/kg i.v. twice a day for 8 days; measured on the 8th day; mean; P < 0.05 vs control group",
  "procedure": "Male JCL:SD strain rats aged 9 weeks weighing 280-300 g received cisplatin (4.5 mg/kg) intraperitoneally. Normal rats were injected with an equal amount of saline instead of cisplatin. The effect of chronic intravenous administration of the test compound (0.1 mg/kg, twice a day) on cisplatin induced renal failure was investigated in rats. […] The plasma creatinine concentrations were measured in all rats on the 8th day.",
  "note": "Marks after values point to notes of the source that are not given here.",
  "data": [
    {"smiles": "O=C(O)CC1=C(n2nc(-c3c(-c4ccccc4)nn4ccccc34)ccc2=O)CCCC1", "note": "[Example 58, 3-[2-(2-carboxymethyl-1-cyclohexenyl)-3-oxo-2,3-dihydropyridazin-6-yl]-2-phenylpyrazolo[1,5-a]pyridine]", "values": [
      {"measurement": "serum creatinine", "value": "1.10* mg/dl"}
    ]}
  ]
}
